According to patent US7183253B2, “Substantially pure glycopeptide antibiotics AC-98-1, AC-98-2, AC-98-3, AC-98-4 and AC-98-5” (Wyeth Holdings Corp., priority 2001, dated 2007):
Converted amounts (≈) assume the structure as drawn. Numbered stars: 1 amine (or outer) side, 2 acyl side, 3 side chain; on linkers, the order of the positions; unused ones are H or OH. Square brackets hold non-standard residues; d marks the D form. Peptide text beside a SMILES is read from it. * marks the point of attachment. ξ: configuration not given here. X1 = N=C1NCC(C(O)C(N[*:1])C(=O)[*:2])N1C1OC(CO)C(O)C(O)C1O; ξEnduracididine(βξ-OH,4'ξ) = N=C1NCC(C(O)C(N)C(=O)O)N1; X2 = OCC1OC(OC2C(CO)OC(*)C(O)C2O)C(O)C(O)C1O; ξPhe(βξ-Me) = CC(c1ccccc1)C(N)C(=O)O

Legend:
[1] = system: Staphylococcus aureus (ID-4379); experiment: In vitro antibacterial activity, agar dilution MIC; assay type: cell-based; settings: Mueller-Hinton agar, 5% sheep blood, 18 hours
Protocol: (§1) The in vitro antibacterial activity of substantially pure glycopeptide antibiotics AC-98-1, AC-98-2, AC-98-3, AC-98-4, and AC-98-5 from Examples 2 and 3 is determined against a spectrum of bacteria by a standard agar dilution method. Mueller-Hinton agar containing 5% sheep blood and two-fold decreasing concentrations of substantially pure glycopeptide antibiotics AC-98-1, AC-98-2, AC-98-3, AC-98-4, and AC-98-5 from Examples 2 and 3 are poured into petri dishes. The agar surfaces are inoculated with 1 to 5×10^4 colony forming units of bacteria by means of a Steers replicating device. The lowest concentration of antibiotic that inhibited the growth of a bacterial strain after 18 hours incubation is recorded as the minimal inhibitory concentration for that strain.

[2] = system: Enterococcus faecium (ID-3953); experiment: In vitro antibacterial activity, agar dilution MIC; assay type: cell-based; settings: Mueller-Hinton agar, 5% sheep blood, 18 hours
Protocol: as §1

[3] = system: Streptococcus pneumoniae (ID-4444); experiment: In vitro antibacterial activity, agar dilution MIC; assay type: cell-based; settings: Mueller-Hinton agar, 5% sheep blood, 18 hours
Protocol: as §1

[4] = system: Streptococcus pneumoniae (GC1889); experiment: In vitro antibacterial activity, agar dilution MIC; assay type: cell-based; settings: Mueller-Hinton agar, 5% sheep blood, 18 hours
Protocol: as §1

[5] = system: Enterococcus faecium (ID-3301); experiment: In vitro antibacterial activity, agar dilution MIC; assay type: cell-based; settings: Mueller-Hinton agar, 5% sheep blood, 18 hours
Protocol: as §1

[6] = system: Micrococcus luteus (ATCC 9341); experiment: In vitro antibacterial activity, agar dilution MIC; assay type: cell-based; settings: ATCC9341, Mueller-Hinton agar, 5% sheep blood, 18 hours
Protocol: as §1

[7] = system: Staphylococcus aureus Smith; experiment: In vivo antibacterial activity in infected mice; settings: female CD-1 mice infected intraperitoneally with Staphylococcus aureus Smith; treated intravenously 30 minutes before infection; read-out: ED50 (iv, mg/kg) Staphylococcus aureus
Protocol: The in vivo antibacterial activity of substantially pure glycopeptides AC-98-1, AC-98-2, AC-98-3, AC-98-4, and AC-98-5 is established by infecting female CD-1 mice from Charles River Laboratories, weighing 20+/−2 g each, intraperitoneally with 6.5×10^5 CFU/0.5 ml of broth of Staphylococcus aureus Smith. The mice are treated intravenously, 30 minutes before infection with the indicated dose of the test compound in 0.2 ml of water.

Escherichia coli (J2175) = experiment: In vitro antibacterial activity, agar dilution MIC; assay type: cell-based; settings: Mueller-Hinton agar, 5% sheep blood, 18 hours
Protocol: as §1

[8] = system: Escherichia coli (ATCC 25922); experiment: In vitro antibacterial activity, agar dilution MIC; assay type: cell-based; settings: ATCC25922, Mueller-Hinton agar, 5% sheep blood, 18 hours
Protocol: as §1

Structure (SMILES) | MIC [1] [mg/mL] | MIC [2] [mg/mL] | MIC [3] [mg/mL] | MIC [4] [mg/mL] | MIC [5] [mg/mL] | MIC [6] [mg/mL] | ED50 [7] [mg/kg] | MIC (Escherichia coli (J2175)) [mg/mL] | MIC [8] [mg/mL]
CC(C)CC(=O)OC1C(OC2C(CO)OC(Oc3ccc(CC4NC(=O)C(C(C)c5ccccc5)NC(=O)CNC(=O)C(CO)NC(=O)C(C(O)C5CNC(=N)N5C5OC(CO)C(O)C(O)C5O)NC(=O)C(C(O)C5CNC(=N)N5)NC4=O)cc3)C(O)C2O)OC(CO)C(O)C1O (stereo not drawn) [AC-98-3] | 8 (≈ 5.8 mM) | 64 (≈ 46.4 mM) | 8 (≈ 5.8 mM) | 4 (≈ 2.9 mM) | 64 (≈ 46.4 mM) | 2 (≈ 1.45 mM) | 3.8 |  | 
CC(C)CC(=O)OC1C(CO)OC(OC2C(CO)OC(Oc3ccc(CC4NC(=O)C(C(C)c5ccccc5)NC(=O)CNC(=O)C(CO)NC(=O)C(C(O)C5CNC(=N)N5C5OC(CO)C(O)C(O)C5O)NC(=O)C(C(O)C5CNC(=N)N5)NC4=O)cc3)C(O)C2O)C(O)C1O (stereo not drawn) [AC-98-5] | 4 (≈ 2.9 mM) | 32 (≈ 23.2 mM) | 2 (≈ 1.45 mM) |  | 16 (≈ 11.6 mM) | 1 (≈ 0.725 mM) | 0.6 | 64 (≈ 46.4 mM) | 
CC(c1ccccc1)C1NC(=O)CNC(=O)C(CO)NC(=O)C(C(O)C2CNC(=N)N2C2OC(CO)C(O)C(O)C2O)NC(=O)C(C(O)C2CNC(=N)N2)NC(=O)C(Cc2ccc(O)cc2)NC1=O (stereo not drawn) [AC-98-2] (cyclo(G[ξPhe(βξ-Me)]Y[ξEnduracididine(βξ-OH,4'ξ)][X1]S); configuration not given here) | 64 (≈ 65.9 mM) |  | > 64 |  |  | 16 (≈ 16.5 mM) | > 32 | 64 (≈ 65.9 mM) | 64 (≈ 65.9 mM)
CC(C)CC(=O)OC1C(O)C(CO)OC(OC2C(CO)OC(Oc3ccc(CC4NC(=O)C(C(C)c5ccccc5)NC(=O)CNC(=O)C(CO)NC(=O)C(C(O)C5CNC(=N)N5C5OC(CO)C(O)C(O)C5O)NC(=O)C(C(O)C5CNC(=N)N5)NC4=O)cc3)C(O)C2O)C1O (stereo not drawn) [AC-98-4] | 4 (≈ 2.9 mM) | 64 (≈ 46.4 mM) | 4 (≈ 2.9 mM) | 4 (≈ 2.9 mM) | 64 (≈ 46.4 mM) | 2 (≈ 1.45 mM) | 2.6 |  | 
CC(c1ccccc1)C1NC(=O)CNC(=O)C(CO)NC(=O)C(C(O)C2CNC(=N)N2C2OC(CO)C(O)C(O)C2O)NC(=O)C(C(O)C2CNC(=N)N2)NC(=O)C(Cc2ccc(OC3OC(CO)C(OC4OC(CO)C(O)C(O)C4O)C(O)C3O)cc2)NC1=O (stereo not drawn) [AC-98-1] (cyclo(G[ξPhe(βξ-Me)]Y(X2)[ξEnduracididine(βξ-OH,4'ξ)][X1]S); configuration not given here) |  |  | > 32 |  |  | 64 (≈ 49.4 mM) | 20 |  | 
